Assay results reported in patent US7407954B2, “Thieno-(1,3)-oxazin-4-ones with lipase inhibiting activity” (Alizyme Therapeutics Limited, priority 2001, dated 2008).

Columns and labels:
[1] = target: T1, porcine pancreatic lipase (Sus scrofa, UniProt P00591); test: Lipase enzyme activity, NaOH titration method (lipid micelles); type: biochemical; conditions: NaOH titration assay
T1 sequence (P00591 1-450): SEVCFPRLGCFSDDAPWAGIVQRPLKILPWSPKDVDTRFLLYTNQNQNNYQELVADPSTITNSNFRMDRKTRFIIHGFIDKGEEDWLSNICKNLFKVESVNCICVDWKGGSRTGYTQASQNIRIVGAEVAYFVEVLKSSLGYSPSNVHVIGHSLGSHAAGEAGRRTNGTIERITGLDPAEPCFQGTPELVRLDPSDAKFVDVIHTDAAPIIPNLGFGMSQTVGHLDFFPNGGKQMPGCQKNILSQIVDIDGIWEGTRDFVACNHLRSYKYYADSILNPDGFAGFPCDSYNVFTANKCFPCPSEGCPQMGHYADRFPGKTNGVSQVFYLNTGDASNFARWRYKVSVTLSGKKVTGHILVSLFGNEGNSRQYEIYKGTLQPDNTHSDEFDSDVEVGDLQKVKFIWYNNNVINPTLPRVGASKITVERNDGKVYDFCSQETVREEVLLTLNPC
Experimental: Measurement of Lipase Enzyme Activity Using a NaOH Titration Method
The inhibitory activity of the selected compound to pancreatic lipase was measured in the assay described in Pasquier et al; 1996, Vol 7, Nutritional Biochemistry, 293-302.
Log dose/response curves were constructed using a range of inhibitor concentrations.
Selected thieno-oxazinone compounds were tested in the NaOH titration assay. In this assay, the activity of porcine pancreatic lipase in a system containing lipid micelles is recorded. These conditions are therefore similar to those encountered in the gastrointestinal tract.

[2] = target: T2, human pancreatic lipase (Homo sapiens, UniProt P16233); test: Lipase activity, quinine diimine dye colorimetric assay (Sigma Lipase-PS); type: biochemical
T2 sequence (P16233 17-465): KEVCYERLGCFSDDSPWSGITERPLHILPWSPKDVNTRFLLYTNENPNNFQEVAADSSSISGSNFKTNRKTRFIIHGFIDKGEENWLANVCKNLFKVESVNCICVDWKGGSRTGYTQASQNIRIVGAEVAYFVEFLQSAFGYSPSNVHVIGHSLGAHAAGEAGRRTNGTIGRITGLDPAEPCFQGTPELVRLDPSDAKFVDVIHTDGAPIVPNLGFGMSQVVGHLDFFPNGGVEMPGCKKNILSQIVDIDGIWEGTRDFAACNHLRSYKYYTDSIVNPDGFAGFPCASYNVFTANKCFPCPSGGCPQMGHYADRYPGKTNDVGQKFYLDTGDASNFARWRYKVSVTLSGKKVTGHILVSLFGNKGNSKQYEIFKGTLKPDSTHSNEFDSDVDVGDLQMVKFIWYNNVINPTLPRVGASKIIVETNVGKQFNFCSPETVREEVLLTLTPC
Experimental: Measurement of Lipase Activity Using a Quinine Diimine Dye Calorimetric Assay
The inhibitory activity of the selected compounds to pancreatic lipase was measured in the following assay available from Sigma Ltd (Lipase-PS™, catalog number 805-A):
The glycerol released from the action of pancreatic and monoglyceride lipase was oxidised to release H2O2. The peroxidase reaction step then produces a quinine dye which is pink in colour and absorbs light at a wavelength of 550 nm.
Individual test compounds were dissolved in DMSO (dimethyl sulphoxide) at 10 mM. DMSO was used to avoid any problems with compounds being water-insoluble.
For individual compounds, the IC50 (concentration at which lipase activity is inhibited to one half of the maximum) was calculated by measuring the inhibitory activity from log-dose response curves using a range of inhibitor concentrations.
A range of standard compounds were assayed in the quinine dye calorimetric assay which provides a rapid method to measure lipase inhibitory activity.

Structure (SMILES) | IC50 [1] [nM] | IC50 [2] [nM]
O=c1oc(Nc2ccccc2)nc2sccc12 [Compound 1, 2-Phenylamino-4H-thieno[2,3-d][1,3]oxazin-4-one] | ≤ 1000 | < 100
O=c1oc(Nc2ccc(Oc3ccccc3)cc2)nc2sccc12 [Compound 5, 2-(4-Phenoxy)phenylamino-4H-thieno[2,3-d][1,3]oxazin-4-one] | ≤ 1000 | < 100
O=c1oc(Nc2ccccc2)nc2cc(-c3ccccc3)sc12 [Compound 6] | ≤ 1000 | < 100
O=c1oc(Nc2ccc(Oc3cccc(C(F)(F)F)c3)cc2)nc2sccc12 [Compound 7, 2-(4-(3-Trifluoromethyl-phenoxy)phenylamino)-4H-thieno[2,3-d][1,3]oxazin-4-one] | ≤ 1000 | < 100
CC(C)(C)c1cc2nc(Nc3ccccc3)oc(=O)c2s1 [Compound 8] | ≤ 1000 | < 100
Cc1cc2c(=O)oc(Nc3ccc(Oc4ccccc4)cc3)nc2s1 [Compound 9, 6-Methyl-2-(4-phenoxy)phenylamino-4H-thieno[2,3-d][1,3]oxazin-4-one] | ≤ 1000 | < 100
O=c1oc(Nc2ccc(Oc3ccccc3)cc2)nc2ccsc12 [Compound 10, 2-(4-Phenoxy)phenylamino-4H-thieno[3,2-d][1,3]oxazin-4-one] | ≤ 1000 | < 100
O=c1oc(Nc2ccc(Cc3ccccc3)cc2)nc2sccc12 [Compound 11, 2-(4-Phenylmethyl)phenylamino-4H-thieno[2,3-d][1,3]oxazin-4-one] | ≤ 1000 | < 100
O=C(c1ccccc1)c1ccc(Nc2nc3sccc3c(=O)o2)cc1 [Compound 12, 2-(4-Benzoyl)phenylamino-4H-thieno[2,3-d][1,3]oxazin-4-one] | ≤ 1000 | < 100
O=c1oc(Nc2ccc(Oc3ccc(C(F)(F)F)cc3)cc2)nc2sccc12 [Compound 14, 2-(4-(4-Trifluoromethyl-phenoxy)phenylamino)-4H-thieno[2,3-d][1,3]oxazin-4-one] | ≤ 1000 | < 100
O=c1oc(Oc2ccc(Oc3cccc(C(F)(F)F)c3)cc2)nc2ccsc12 [Compound 15, 2-(4-(3-Trifluoromethyl-phenoxy)phenoxy)-4H-thieno[3,2-d][1,3]oxazin-4-one] | ≤ 1000 | < 100
O=c1oc(Nc2ccc(Sc3ccccc3)cc2)nc2sccc12 [Compound 16, 2-(4-Phenylthio)phenylamino-4H-thieno[2,3-d][1,3]oxazin-4-one] | ≤ 1000 | < 100
CCCCCCCCCCCCNc1nc2sc(C)cc2c(=O)o1 [Compound 18, 2-Dodecylamino-6-methyl-4H-thieno[2,3-d][1,3]oxazin-4-one] | – | < 100
CCCCCCCCCCCCN(C)c1nc2sc(C)cc2c(=O)o1 [Compound 19, 2-N-Dodecyl-N-methylamino-6-methyl-4H-thieno[2,3-d][1,3]oxazin-4-one] | – | < 100
CCCCCCCCCCCCNc1nc2sccc2c(=O)o1 [Compound 20, 2-Dodecylamino-4H-thieno[2,3-d][1,3]oxazin-4-one] | – | < 100
CCCCCCCCCCCCSc1nc2sc(C)cc2c(=O)o1 [Compound 21, 2-Dodecylthio-6-methyl-4H-thieno[2,3-d][1,3]oxazin-4-one] | – | < 100
O=c1oc(Nc2ccc(S(=O)(=O)c3ccccc3)cc2)nc2sccc12 [Compound 23, 2-(4-Phenylsulfonyl)phenylamino-4H-thieno[2,3-d][1,3]oxazin-4-one] | – | < 100
O=C(Nc1ccccc1)c1ccc(Nc2nc3sccc3c(=O)o2)cc1 [Compound 24, 2-(4-Phenylcarbamoyl)phenylamino-4H-thieno[2,3-d][1,3]oxazin-4-one] | – | < 100
O=c1oc(Nc2ccc(Oc3ccc(Cl)cc3)cc2)nc2sccc12 [Compound 25, 2-(4-(4-Chlorophenoxy)-phenylamino)-4H-thieno[2,3-d][1,3]oxazin-4-one] | – | < 100

Structure (SMILES) | IC50 [1] [nM] | IC50 [2] [nM]
Cc1ccc(Oc2ccc(Nc3nc4sccc4c(=O)o3)cc2)cc1 [Compound 26, 2-(4-(4-Methylphenoxy)-phenylamino)-4H-thieno[2,3-d][1,3]oxazin-4-one] | – | < 100
N#Cc1ccc(Nc2nc3sccc3c(=O)o2)cc1 [Compound 27, 2-(4-Cyanophenyl)amino-4H-thieno[2,3-d][1,3]oxazin-4-one] | – | < 100
CCCc1cc2c(=O)oc(Nc3ccc(C#N)cc3)nc2s1 [Compound 28, 2-(4-Cyanophenyl)amino-6-propyl-4H-thieno[2,3-d][1,3]oxazin-4-one] | – | < 100
Cc1cc2c(=O)oc(Nc3ccc(C#N)cc3)nc2s1 [Compound 29, 2-(4-Cyanophenyl)amino-6-methyl-4H-thieno[2,3-d][1,3]oxazin-4-one] | – | < 100
N#Cc1ccc(Nc2nc3sc(Cc4ccccc4)cc3c(=O)o2)cc1 [Compound 30, 6-Phenylmethyl-2-(4-cyanophenyl)amino-4H-thieno[2,3-d][1,3]oxazin-4-one] | – | < 100
CCCCCCCCCCCCc1cc2c(=O)oc(Nc3ccc(C#N)cc3)nc2s1 [Compound 31, 2-(4-Cyanophenyl)amino-6-dodecyl-4H-thieno[2,3-d][1,3]oxazin-4-one] | – | < 100
Cc1cc2c(=O)oc(NCCCCc3ccccc3)nc2s1 [Compound 32, 6-Methyl-2-(4-phenylbutyl)amino-4H-thieno[2,3-d][1,3]oxazin-4-one] | – | < 100
Cc1cc2c(=O)oc(NCCCl)nc2s1 [Compound 33, 2-(2-Chloroethyl)amino-6-methyl-4H-thieno[2,3-d][1,3]oxazin-4-one] | – | < 100
COC(=O)CCCCCNc1nc2sc(C)cc2c(=O)o1 [Compound 35, 2-(5-Methoxycarbonylpentyl)amino-6-methyl-4H-thieno[2,3-d][1,3]oxazin-4-one] | – | < 100
O=c1oc(Nc2ccc(Oc3ccc(C(F)(F)F)cc3)cc2)nc2ccsc12 [Compound 38, 2-(4-(4-Trifluoromethyl-phenoxy)phenylamino)-4H-thieno[3,2-d][1,3]oxazin-4-one] | – | < 100
N#Cc1ccc(Nc2nc3ccsc3c(=O)o2)cc1 [Compound 40, 2-(4-Cyanophenyl)amino-4H-thieno[3,2-d][1,3]oxazin-4-one] | – | < 100
CCCCCCCCCCCCNc1nc2ccsc2c(=O)o1 [Compound 41, 2-Dodecylamino-4H-thieno[3,2-d][1,3]oxazin-4-one] | – | < 100
Cc1cc2nc(Nc3ccc(Oc4ccccc4)cc3)oc(=O)c2s1 [Compound 43, 5-Methyl-2-(4-phenoxy)phenylamino-4H-thieno[3,2-d][1,3]oxazin-4-one] | ≤ 1000 | < 100
CCCc1cc2c(=O)oc(Nc3ccc(Oc4ccccc4)cc3)nc2s1 [Compound 44, 6-Propyl-2-(4-phenoxy)phenylamino-4H-thieno[2,3-d][1,3]oxazin-4-one] | ≤ 1000 | < 100
CCCCCCCCCCCCCCCCNc1nc2sc(C)cc2c(=O)o1 [Compound 45, 2-Hexadecylamino-6-methyl-4H-thieno-[2,3-d][1,3]oxazin-4-one] | ≤ 1000 | < 100
Cc1cc2c(=O)oc(Nc3ccccc3)nc2s1 [Compound 46, 6-Methyl-2-phenylamino-4H-thieno[2,3-d][1,3]oxazin-4-one] | ≤ 1000 | < 100
CCCCNc1nc2sc(C)cc2c(=O)o1 [Compound 47, 2-Butylamino-6-methyl-4H-thieno[2,3-d][1,3]oxazin-4-one] | ≤ 1000 | < 100
O=c1oc(Nc2ccc(Oc3ccccc3)cc2)nc2sc(Cl)cc12 [Compound 48, 6-Chloro-2-(4-phenoxy)phenylamino-4H-thieno[2,3-d][1,3]oxazin-4-one] | ≤ 1000 | < 100
CCCCCCCCCCCCc1cc2c(=O)oc(Nc3ccc(Oc4ccccc4)cc3)nc2s1 [Compound 49, 6-Dodecyl-2-(4-phenoxy)phenylamino-4H-thieno[2,3-d][1,3]oxazin-4-one] | ≤ 1000 | < 100
